Publication PMC3242765, “Inhibitors of Alphavirus Entry and Replication Identified with a Stable Chikungunya Replicon Cell Line and Virus-Based Assays” (PLoS ONE, 2011)
Entries after “also recorded” stand apart in the source; their conditions may differ. Read-outs that look alike come from different tables or passages of the source.

Assays:
CHIKV replicon = assay: microbe, parasite or virus in culture; type: cell-based, Chikungunya virus (CHIKV)
SINV = assay: CPE reduction assay, SINV (WST-1); type: cell-based, Sindbis virus (SINV); conditions: Sindbis virus, BHK, 24 h, read-out: SINV IC50 (CPE reduction)
SFV-Rluc [1] = assay: microbe, parasite or virus in culture; conditions: Semliki Forest virus, BHK; for IC50: 14 h, read-out: SFV IC50
SFV-Rluc [2] = conditions: for IC50: read-out: SFV IC50
SFV [3] = assay: Viral yield analysis using a plaque assay; type: cell-based, Semliki Forest virus (SFV); conditions: for Decrease of SFV titer versus untreated control: 50 µM compound, MOI 0.01, 16 h; for SFV yield: BHK cells, MOI 0.01, 50 µM compound, 16 h, untreated control 1.4×10^9 PFU/ml
BHK cells = assay: Cell viability ATP assay, BHK cells; type: cell-based, hamster; conditions: Mesocricetus auratus, BHK, 48 h, read-out: Cell viability IC50
SFV [4] = assay: CPE reduction assay, SFV (WST-1); type: cell-based, Semliki Forest virus (SFV); conditions: Semliki Forest virus, BHK, 22 h, read-out: SFV IC50 (CPE reduction)
BHK-CHIKV-NCT cells = assay: Cell viability ATP assay, BHK-CHIKV-NCT cells; type: cell-based, hamster
CHIKV-Rluc = assay: microbe, parasite or virus in culture; type: cell-based, Chikungunya virus (CHIKV); conditions: Chikungunya virus, BHK, 16 h, read-out: CHIKV-Rluc IC50
CHIKV [5] = conditions: cited from earlier work
SFVts9-Rluc = type: cell-based, Semliki Forest virus (SFV)
CHIKV [6] = conditions: 2006 La Réunion outbreak; cited from earlier work
[7] = Chikungunya virus, 48 h, read-out: EGFP IC50
[8] = Chikungunya virus, 48 h, read-out: Rluc IC50
[9] = Mesocricetus auratus, 48 h, read-out: Cell viability IC50, ATP assay, 48 h exposure of BHK-CHIKV-NCT cells, up to 200 µM

Nc1ncnc2c1ncn2[C@@H]1O[C@H](CO)[C@@H](N)[C@H]1O [3′-NH2-3′-deoxyadenosine, 3′-amino-3′-deoxyadenosine]
IC50 (CHIKV replicon; [7]): 34 µM
IC50 (CHIKV replicon; [8]): 62.4 µM
IC50 (SINV): 23.4 µM
IC50 (SFV-Rluc [1]): 16.2 µM
SI (selectivity index) (SFV-Rluc [2]): 10.7
Decrease of SFV titer versus untreated control (SFV [3]): two orders of magnitude
SFV yield (SFV [3]): 2.7×10^7 PFU/ml
IC50 (BHK cells): 174 µM
IC50 (SFV [4]): 17.5 µM
IC50 (BHK-CHIKV-NCT cells; [9]): 187 µM

O=c1cnn([C@@H]2O[C@H](CO)[C@@H](O)[C@H]2O)c(=O)[nH]1 [6-Azauridine]
IC50 (SINV): > 200 µM
IC50 (SFV-Rluc [1]): > 200 µM
inhibition at 200 µM (SFV-Rluc [1]; read-out: Inhibition of SFV-Rluc): 40%
IC50 (CHIKV-Rluc): 29.7 µM
SFV yield (SFV [3]): 9.1×10^7 PFU/ml
IC50 (CHIKV [5]; approximate conversion of 0.2 µg/ml, read-out: previously reported potency for CHIKV, converted): ~0.8 µM
previously reported potency for CHIKV (CHIKV [5]): 0.2 µg/mL
IC50 (BHK cells): > 200 µM
IC50 (SFV [4]): > 200 µM
IC50 (BHK-CHIKV-NCT cells; [9]): > 200 µM

O=c1cc(-c2ccc(O)cc2)oc2cc(O)cc(O)c12 [Apigenin]
CHIKV replicon % left (CHIKV replicon): 8.7%
IC50 (CHIKV replicon; [7]): 22.5 µM
IC50 (CHIKV replicon; [8]): 28.3 µM
IC50 (SINV): 7.2 µM
IC50 (SFV-Rluc [1]): 20.6 µM
SFV replication % left (surviving fraction, remaining percentage of SFV replication) (SFV-Rluc [2]): 18.0%
SI (selectivity index) (SFV-Rluc [2]): >9.7
IC50 (CHIKV-Rluc): 70.8 µM
SFV yield (SFV [3]): 6.7×10^7 PFU/ml
IC50 (BHK cells): > 200 µM
Effect on SFV entry (Rluc activity) (SFVts9-Rluc): None of the other compounds, including the flavonoids apigenin, chrysin, naringenin and silybin, inhibited SFV entry
IC50 (SFV [4]): 4.4 µM
IC50 (BHK-CHIKV-NCT cells; [9]): > 200 µM

CCN(CC)CCCC(C)Nc1ccnc2cc(Cl)ccc12 (stereo not shown) [Chloroquine]
CHIKV replicon % left (CHIKV replicon): 104.4%
Suppression of CHIKV replicon (in words) (CHIKV replicon): no suppression of replicon propagation; also recorded: has no effect on CHIKV replicon
IC50 (SINV): 11.3 µM
Clinical efficacy in acute CHIKV viremia (duration of viremia, severity and duration of symptoms) (CHIKV [6]): failed to show any benefits
IC50 (SFV-Rluc [1]): 13.4 µM
SFV replication % left (surviving fraction, remaining percentage of SFV replication) (SFV-Rluc [2]): 12.2%
SI (selectivity index) (SFV-Rluc [2]): >14.9
Decrease of SFV titer versus untreated control (SFV [3]): two orders of magnitude
SFV yield (SFV [3]): 3.3×10^7 PFU/ml
IC50 (BHK cells): > 200 µM
Effect on Rluc signal of SFVts9-Rluc (entry) (SFVts9-Rluc): dose-dependent inhibition of Rluc signal
IC50 (SFV [4]): 8.2 µM

O=c1cc(-c2ccccc2)oc2cc(O)cc(O)c12 [Chrysin]
CHIKV replicon % left (CHIKV replicon): 13.8%
IC50 (CHIKV replicon; [7]): 46.8 µM
IC50 (CHIKV replicon; [8]): 50.2 µM
IC50 (SINV): 43.3 µM
IC50 (SFV-Rluc [1]): 13.7 µM
SFV replication % left (surviving fraction, remaining percentage of SFV replication) (SFV-Rluc [2]): 18.1%
SI (selectivity index) (SFV-Rluc [2]): >14.6
IC50 (CHIKV-Rluc): 127 µM
SFV yield (SFV [3]): 2.9×10^8 PFU/ml
IC50 (BHK cells): > 200 µM
Effect on SFV entry (Rluc activity) (SFVts9-Rluc): None of the other compounds, including the flavonoids apigenin, chrysin, naringenin and silybin, inhibited SFV entry
IC50 (SFV [4]): 22.9 µM
IC50 (BHK-CHIKV-NCT cells; [9]): > 200 µM

CCN(CC)C(C)CN1c2ccccc2Sc2ccccc21 (stereo not shown) [Ethopropazine]
IC50 (SINV): 21.4 µM
IC50 (SFV-Rluc [1]): 16 µM
SI (selectivity index) (SFV-Rluc [2]): 10.4
IC50 (CHIKV-Rluc): 61.5 µM
SFV yield (SFV [3]): 8.1×10^8 PFU/ml
IC50 (BHK cells): 167 µM
Effect on SFV entry (Rluc activity) (SFVts9-Rluc): decreased the Rluc activity
IC50 (SFV [4]): 17.1 µM

COc1c(C)c2c(c(O)c1C/C=C(\C)CCC(=O)O)C(=O)OC2 [Mycophenolic acid, reference compound]
Change of replicon IC50 with guanosine supplementation (CHIKV replicon): increased by at least two orders of magnitude
IC50 (CHIKV replicon; [7]): ~1 µM
IC50 (CHIKV replicon; read-out: EGFP IC50): 1.5 µM
IC50 (SINV): 44.4 µM
IC50 (SFV-Rluc [1]): ~100 µM
SI (selectivity index) (SFV-Rluc [2]): >1.7
IC50 (SFV-Rluc [2]): 121 µM
Decrease of SFV titer versus untreated control (SFV [3]): approximately one order of magnitude
SFV yield (SFV [3]): 1.2×10^8 PFU/ml
IC50 (BHK cells): > 200 µM
IC50 (SFV [4]): 39 µM
IC50 (BHK-CHIKV-NCT cells; [9]): > 200 µM

O=C1C[C@@H](c2ccc(O)cc2)Oc2cc(O)cc(O)c21 [Naringenin]
CHIKV replicon % left (CHIKV replicon): 6.2%
IC50 (CHIKV replicon; [7]): 25.8 µM
IC50 (CHIKV replicon; [8]): 30 µM
IC50 (SINV): 21.2 µM
IC50 (SFV-Rluc [1]): 2.2 µM
SFV replication % left (surviving fraction, remaining percentage of SFV replication) (SFV-Rluc [2]): -0.0736%
SI (selectivity index) (SFV-Rluc [2]): 42.8
IC50 (CHIKV-Rluc): 118 µM
SFV yield (SFV [3]): 8.2×10^7 PFU/ml
IC50 (BHK cells): 94.1 µM
Effect on SFV entry (Rluc activity) (SFVts9-Rluc): None of the other compounds, including the flavonoids apigenin, chrysin, naringenin and silybin, inhibited SFV entry
IC50 (SFV [4]): 19.3 µM
IC50 (BHK-CHIKV-NCT cells; [9]): 104 µM
IC50 (BHK-CHIKV-NCT cells; read-out: Cell viability IC50, ATP assay, 48 h exposure of BHK-CHIKV-NCT cells, up to 200 µM): 122 µM

CN(C)CCCN1c2ccccc2Sc2cccnc21 [Prothipendyl]
IC50 (CHIKV replicon; [7]): 135 µM
IC50 (CHIKV replicon; [8]): 93.3 µM
IC50 (SINV): 46.5 µM
IC50 (SFV-Rluc [1]): 8.2 µM
SI (selectivity index) (SFV-Rluc [2]): >24.4
IC50 (CHIKV-Rluc): 97.3 µM
SFV yield (SFV [3]): 4.0×10^8 PFU/ml
IC50 (BHK cells): > 200 µM
IC50 (SFV [4]): 34.2 µM
IC50 (BHK-CHIKV-NCT cells; [9]): 186 µM

NC(=O)c1ncn([C@@H]2O[C@H](CO)[C@@H](O)[C@H]2O)n1 [Ribavirin]
Change of replicon IC50 with guanosine supplementation (CHIKV replicon): increased by at least two orders of magnitude
IC50 (CHIKV replicon; [7]): 8.8 µM
IC50 (CHIKV replicon; [8]): 25.4 µM
IC50 (SINV): 51.8 µM
IC50 (SFV-Rluc [1]): ~100 µM
IC50 (SFV-Rluc [2]): 95.1 µM
Decrease of SFV titer versus untreated control (SFV [3]): approximately one order of magnitude
SFV yield (SFV [3]): 2.1×10^8 PFU/ml
IC50 (BHK cells): > 200 µM
IC50 (SFV [4]): 28.1 µM
IC50 (BHK-CHIKV-NCT cells; [9]): > 200 µM

COc1cc(C2Oc3cc([C@H]4Oc5cc(O)cc(O)c5C(=O)[C@@H]4O)ccc3OC2CO)ccc1O (stereo partly shown) [Silybin]
CHIKV replicon % left (CHIKV replicon): 14.1%
IC50 (CHIKV replicon; [7]): 71.1 µM
IC50 (CHIKV replicon; [8]): 59.8 µM
IC50 (SINV): 22.6 µM
IC50 (SFV-Rluc [1]): 16.4 µM
SFV replication % left (surviving fraction, remaining percentage of SFV replication) (SFV-Rluc [2]): 22.4%
SI (selectivity index) (SFV-Rluc [2]): >12.2
IC50 (CHIKV-Rluc): 92.3 µM
SFV yield (SFV [3]): 3.7×10^8 PFU/ml
IC50 (BHK cells): > 200 µM
Effect on SFV entry (Rluc activity) (SFVts9-Rluc): None of the other compounds, including the flavonoids apigenin, chrysin, naringenin and silybin, inhibited SFV entry
IC50 (SFV [4]): 9.6 µM
IC50 (BHK-CHIKV-NCT cells; [9]): > 200 µM

CCSc1ccc2c(c1)N(CCCN1CCN(C)CC1)c1ccccc1S2 [Thiethylperazine]
CHIKV replicon % left (CHIKV replicon): 101.1%
IC50 (SFV-Rluc [1]): 15 µM
SFV replication % left (surviving fraction, remaining percentage of SFV replication) (SFV-Rluc [2]): 26.5%
SI (selectivity index) (SFV-Rluc [2]): 5.5
IC50 (CHIKV-Rluc): 63.8 µM
IC50 (BHK cells): 83.1 µM
Effect on SFV entry (Rluc activity) (SFVts9-Rluc): decreased the Rluc activity
